{
  "source": "paper PMC7311170",
  "about": "“Moyamoya disease factor RNF213 is a giant E3 ligase with a dynein-like core and a distinct ubiquitin-transfer mechanism” (eLife, 2020)",
  "key": {"[1]": {"biological_target": "T1, RNF213 (mouse, full-length) (Mus musculus, UniProt E9Q555)", "T1 construct": "full length, 5148 residues, 584 kDa, C-terminal Gly3-His10 tag kept; codon-optimised, High Five insect cells; monomer; modelled residues 476-5148", "test": "cryo-EM structure", "type": "binding", "conditions": "co-purified ATP, Mg; bound to catalytically inactive AAA2, contacts from AAA3"}, "[2]": {"biological_target": "T2, RNF213 (mouse, full-length) (Mus musculus, UniProt E9Q555, R4753K)", "T2 construct": "full length, 5148 residues, 584 kDa, C-terminal Gly3-His10 tag kept; codon-optimised, High Five insect cells; monomer; modelled residues 476-5148", "T2 sequence (E9Q555 whole entry R4753K, the tested form may be a part)": "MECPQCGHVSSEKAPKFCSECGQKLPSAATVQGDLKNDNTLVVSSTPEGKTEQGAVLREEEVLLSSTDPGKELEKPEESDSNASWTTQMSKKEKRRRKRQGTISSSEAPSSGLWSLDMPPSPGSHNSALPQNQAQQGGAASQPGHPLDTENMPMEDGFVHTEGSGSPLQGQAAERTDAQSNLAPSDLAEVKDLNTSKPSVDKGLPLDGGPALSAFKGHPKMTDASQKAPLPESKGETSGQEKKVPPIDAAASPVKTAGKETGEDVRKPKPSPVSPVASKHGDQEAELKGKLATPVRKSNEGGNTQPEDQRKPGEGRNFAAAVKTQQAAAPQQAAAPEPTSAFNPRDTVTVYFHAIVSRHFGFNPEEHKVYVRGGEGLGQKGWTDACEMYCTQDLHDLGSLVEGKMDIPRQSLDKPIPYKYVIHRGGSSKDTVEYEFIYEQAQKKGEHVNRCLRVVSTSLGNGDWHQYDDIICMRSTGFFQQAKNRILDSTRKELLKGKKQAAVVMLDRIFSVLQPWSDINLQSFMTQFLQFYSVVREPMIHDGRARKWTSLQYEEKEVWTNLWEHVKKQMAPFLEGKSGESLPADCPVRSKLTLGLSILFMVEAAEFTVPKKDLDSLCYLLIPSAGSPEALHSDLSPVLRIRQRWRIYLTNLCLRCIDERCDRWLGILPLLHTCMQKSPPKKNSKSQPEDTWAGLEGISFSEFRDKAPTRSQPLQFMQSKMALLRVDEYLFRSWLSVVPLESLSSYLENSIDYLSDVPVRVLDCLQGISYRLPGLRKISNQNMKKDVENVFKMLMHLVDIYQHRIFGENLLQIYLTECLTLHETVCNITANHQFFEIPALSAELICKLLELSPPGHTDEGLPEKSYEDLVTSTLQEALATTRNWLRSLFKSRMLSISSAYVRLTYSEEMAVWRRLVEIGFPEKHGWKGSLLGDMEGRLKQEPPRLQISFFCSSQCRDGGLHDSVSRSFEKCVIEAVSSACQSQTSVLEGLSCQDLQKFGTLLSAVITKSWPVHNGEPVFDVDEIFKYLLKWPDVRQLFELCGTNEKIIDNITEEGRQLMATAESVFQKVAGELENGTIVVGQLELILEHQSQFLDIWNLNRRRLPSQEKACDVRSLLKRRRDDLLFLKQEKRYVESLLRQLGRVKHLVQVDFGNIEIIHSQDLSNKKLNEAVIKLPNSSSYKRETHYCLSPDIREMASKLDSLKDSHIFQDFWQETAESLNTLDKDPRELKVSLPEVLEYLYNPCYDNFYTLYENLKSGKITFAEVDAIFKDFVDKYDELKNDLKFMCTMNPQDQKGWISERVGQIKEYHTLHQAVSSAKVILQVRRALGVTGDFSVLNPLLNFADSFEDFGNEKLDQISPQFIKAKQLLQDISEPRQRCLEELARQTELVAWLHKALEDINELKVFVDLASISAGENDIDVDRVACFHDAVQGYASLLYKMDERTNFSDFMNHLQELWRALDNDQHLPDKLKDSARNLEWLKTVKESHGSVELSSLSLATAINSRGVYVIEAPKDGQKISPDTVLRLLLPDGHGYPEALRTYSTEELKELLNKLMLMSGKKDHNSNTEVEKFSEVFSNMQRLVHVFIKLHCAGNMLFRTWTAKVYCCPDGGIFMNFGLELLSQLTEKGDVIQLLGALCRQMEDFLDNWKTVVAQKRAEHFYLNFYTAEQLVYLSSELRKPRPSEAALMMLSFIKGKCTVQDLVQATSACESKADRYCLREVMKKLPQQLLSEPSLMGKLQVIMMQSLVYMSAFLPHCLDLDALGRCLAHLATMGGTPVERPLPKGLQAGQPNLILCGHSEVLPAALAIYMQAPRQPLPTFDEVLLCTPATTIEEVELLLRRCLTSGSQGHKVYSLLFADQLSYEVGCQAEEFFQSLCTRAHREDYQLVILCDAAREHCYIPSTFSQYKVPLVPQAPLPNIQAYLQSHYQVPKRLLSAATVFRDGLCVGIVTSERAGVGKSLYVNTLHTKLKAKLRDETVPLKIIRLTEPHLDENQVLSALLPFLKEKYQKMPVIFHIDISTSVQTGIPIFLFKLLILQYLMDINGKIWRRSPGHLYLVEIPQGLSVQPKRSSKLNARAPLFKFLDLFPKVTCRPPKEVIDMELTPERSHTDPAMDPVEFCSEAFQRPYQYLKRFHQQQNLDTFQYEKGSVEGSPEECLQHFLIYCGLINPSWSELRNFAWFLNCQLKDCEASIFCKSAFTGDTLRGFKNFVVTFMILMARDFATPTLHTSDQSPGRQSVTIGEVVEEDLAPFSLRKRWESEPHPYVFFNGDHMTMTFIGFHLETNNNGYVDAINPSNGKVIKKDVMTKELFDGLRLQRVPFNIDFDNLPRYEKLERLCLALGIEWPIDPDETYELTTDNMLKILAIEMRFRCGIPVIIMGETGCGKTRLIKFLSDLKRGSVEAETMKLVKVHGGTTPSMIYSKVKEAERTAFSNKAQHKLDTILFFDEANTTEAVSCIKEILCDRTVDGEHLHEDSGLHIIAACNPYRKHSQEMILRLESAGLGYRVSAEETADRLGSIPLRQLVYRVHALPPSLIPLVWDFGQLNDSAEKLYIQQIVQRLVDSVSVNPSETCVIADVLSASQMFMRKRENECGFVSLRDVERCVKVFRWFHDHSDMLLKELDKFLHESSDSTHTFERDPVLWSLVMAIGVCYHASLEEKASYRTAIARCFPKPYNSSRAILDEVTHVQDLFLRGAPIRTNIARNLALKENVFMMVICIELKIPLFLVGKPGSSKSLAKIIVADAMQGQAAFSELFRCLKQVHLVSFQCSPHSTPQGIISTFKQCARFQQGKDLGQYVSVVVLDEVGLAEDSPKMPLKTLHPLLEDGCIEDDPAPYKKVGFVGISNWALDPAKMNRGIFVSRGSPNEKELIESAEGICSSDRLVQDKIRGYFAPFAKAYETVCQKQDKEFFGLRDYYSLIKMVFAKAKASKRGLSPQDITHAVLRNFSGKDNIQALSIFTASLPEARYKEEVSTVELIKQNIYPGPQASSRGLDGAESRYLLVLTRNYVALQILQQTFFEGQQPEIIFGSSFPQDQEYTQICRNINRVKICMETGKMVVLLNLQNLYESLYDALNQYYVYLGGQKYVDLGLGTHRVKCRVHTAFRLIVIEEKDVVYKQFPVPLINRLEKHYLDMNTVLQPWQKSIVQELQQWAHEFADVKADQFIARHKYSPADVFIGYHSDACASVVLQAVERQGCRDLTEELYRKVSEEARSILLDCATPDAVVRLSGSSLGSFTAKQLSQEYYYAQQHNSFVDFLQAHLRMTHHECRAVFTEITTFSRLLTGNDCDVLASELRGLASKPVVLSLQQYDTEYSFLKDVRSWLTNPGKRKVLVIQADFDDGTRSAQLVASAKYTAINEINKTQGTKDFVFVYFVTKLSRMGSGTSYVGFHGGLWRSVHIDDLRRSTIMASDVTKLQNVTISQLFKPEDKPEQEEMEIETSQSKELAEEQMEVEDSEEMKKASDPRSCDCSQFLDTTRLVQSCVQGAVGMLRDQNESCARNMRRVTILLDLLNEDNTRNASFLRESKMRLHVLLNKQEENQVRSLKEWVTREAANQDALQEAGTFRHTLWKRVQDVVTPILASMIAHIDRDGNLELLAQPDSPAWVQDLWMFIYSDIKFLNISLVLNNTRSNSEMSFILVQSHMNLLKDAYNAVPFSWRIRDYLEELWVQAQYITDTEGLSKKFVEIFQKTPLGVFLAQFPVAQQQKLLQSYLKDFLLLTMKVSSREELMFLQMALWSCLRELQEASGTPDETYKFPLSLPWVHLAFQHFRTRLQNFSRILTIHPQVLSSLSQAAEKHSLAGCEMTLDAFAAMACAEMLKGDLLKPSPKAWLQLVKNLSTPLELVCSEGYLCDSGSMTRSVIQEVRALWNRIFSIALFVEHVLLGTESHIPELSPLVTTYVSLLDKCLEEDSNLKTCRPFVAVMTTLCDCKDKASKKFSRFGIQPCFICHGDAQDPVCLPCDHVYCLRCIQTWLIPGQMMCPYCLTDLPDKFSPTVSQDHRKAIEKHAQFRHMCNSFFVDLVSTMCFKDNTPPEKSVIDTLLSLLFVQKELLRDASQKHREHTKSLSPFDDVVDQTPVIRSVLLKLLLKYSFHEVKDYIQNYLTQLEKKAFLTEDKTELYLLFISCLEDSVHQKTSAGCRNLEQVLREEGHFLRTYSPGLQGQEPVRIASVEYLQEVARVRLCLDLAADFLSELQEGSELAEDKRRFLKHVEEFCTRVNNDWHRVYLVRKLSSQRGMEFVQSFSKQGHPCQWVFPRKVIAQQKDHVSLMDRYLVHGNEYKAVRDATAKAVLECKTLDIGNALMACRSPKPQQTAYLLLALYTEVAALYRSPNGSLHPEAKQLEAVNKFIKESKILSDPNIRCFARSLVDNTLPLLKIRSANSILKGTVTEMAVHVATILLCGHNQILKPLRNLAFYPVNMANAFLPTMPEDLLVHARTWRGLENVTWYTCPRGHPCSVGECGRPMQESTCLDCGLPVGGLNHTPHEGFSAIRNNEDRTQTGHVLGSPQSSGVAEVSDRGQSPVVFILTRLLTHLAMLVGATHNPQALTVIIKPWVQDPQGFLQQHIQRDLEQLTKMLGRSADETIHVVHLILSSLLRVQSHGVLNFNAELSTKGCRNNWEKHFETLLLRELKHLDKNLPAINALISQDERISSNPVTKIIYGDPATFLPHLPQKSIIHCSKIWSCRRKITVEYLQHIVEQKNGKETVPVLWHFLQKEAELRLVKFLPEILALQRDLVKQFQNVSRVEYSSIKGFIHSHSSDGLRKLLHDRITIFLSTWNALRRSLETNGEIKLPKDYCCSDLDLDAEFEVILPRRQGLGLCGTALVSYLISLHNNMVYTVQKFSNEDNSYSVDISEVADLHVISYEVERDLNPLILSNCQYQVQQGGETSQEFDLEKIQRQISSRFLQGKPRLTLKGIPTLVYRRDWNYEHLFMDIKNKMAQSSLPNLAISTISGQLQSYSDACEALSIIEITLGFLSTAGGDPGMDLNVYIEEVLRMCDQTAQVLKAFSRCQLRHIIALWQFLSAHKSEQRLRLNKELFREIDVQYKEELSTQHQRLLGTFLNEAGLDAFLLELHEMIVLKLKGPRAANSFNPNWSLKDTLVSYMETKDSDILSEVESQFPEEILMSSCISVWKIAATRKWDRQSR", "test": "NADH-coupled ATPase assay", "type": "biochemical", "conditions": "2 mM ATP, equimolar MgCl2 added, pH 7.2, 30 C; Moyamoya founder mutant (human R4810K); rate only in figure"}, "[3]": {"biological_target": "T1, RNF213 (mouse, full-length)", "test": "NADH-coupled ATPase assay", "type": "biochemical", "conditions": "2 mM ATP, equimolar MgCl2 added, pH 7.2, 30 C; AAA3 and AAA4 proposed competent sites; rate only in figure"}},
  "data": [
    {"smiles": "Nc1ncnc2c1ncn2[C@@H]1O[C@H](COP(=O)(O)OP(=O)(O)OP(=O)(O)O)[C@@H](O)[C@H]1O", "note": "[ATP]", "values": [
      {"measurement": "cryo-EM structure", "setting": "[1]", "value": "unambiguously revealed a co-purified ATP molecule that is bound to AAA2"},
      {"measurement": "NADH-coupled ATPase assay", "setting": "[2]", "value": "does not significantly alter the enzymatic properties of RNF213 in vitro"},
      {"measurement": "NADH-coupled ATPase assay", "setting": "[3]", "value": "ATPase activity of RNF213 is an order of magnitude lower than that of a processive"}
    ]}
  ]
}
